Assay results: paper PMC9743128, “Phenotype-based screening rediscovered benzopyran-embedded microtubule inhibitors as anti-neuroinflammatory agents by modulating the tubulin–p65 interaction” (Experimental & Molecular Medicine, 2022)

Molecular target: T1, tubulin (Sus scrofa, UniProt P02550+P02554)
T1 construct: purchased Cytoskeleton BK006P
Experiment: Tubulin polymerization assay
Format: biochemical
Details: 1 μM compound
Method: The tubulin polymerization inhibition efficacy of the compounds was measured by a tubulin polymerization assay kit (Cytoskeleton; BK006P) according to the manufacturer’s manual. Absorbance at 340 nm was measured to observe the formation of tubulin polymers using a microplate reader (Biotek; Synergy).
Supplementary Fig. 4. Tubulin polymerization inhibition by compounds 1–13 (1 μM). In the presence or absence of compounds, tubulin was incubated to polymerize at room temperature. Absorbance at 340 nm was measured in a time-dependent manner for monitoring the rate of tubulin polymerization.
Supplementary Table 2. Tubulin polymerization inhibition of the focused library. Tubulin was incubated with each compound (1 μM) and the tubulin polymerization inhibition was monitored. Vmax was calculated from tubulin polymer generation curve data of Supplementary Fig. 3.

T1 sequence (P02554 whole entry): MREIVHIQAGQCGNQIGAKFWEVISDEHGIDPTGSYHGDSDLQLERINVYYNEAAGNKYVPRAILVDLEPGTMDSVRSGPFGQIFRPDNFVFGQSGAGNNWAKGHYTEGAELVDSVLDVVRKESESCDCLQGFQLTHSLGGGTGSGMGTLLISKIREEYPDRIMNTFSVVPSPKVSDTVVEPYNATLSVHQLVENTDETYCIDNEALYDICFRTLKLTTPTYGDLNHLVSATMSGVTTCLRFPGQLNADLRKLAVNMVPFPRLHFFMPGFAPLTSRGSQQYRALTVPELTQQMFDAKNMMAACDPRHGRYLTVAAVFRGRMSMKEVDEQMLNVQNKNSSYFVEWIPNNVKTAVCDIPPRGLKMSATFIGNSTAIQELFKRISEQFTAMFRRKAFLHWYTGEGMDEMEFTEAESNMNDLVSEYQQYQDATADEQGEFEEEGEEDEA
T1 sequence (P02550 whole entry): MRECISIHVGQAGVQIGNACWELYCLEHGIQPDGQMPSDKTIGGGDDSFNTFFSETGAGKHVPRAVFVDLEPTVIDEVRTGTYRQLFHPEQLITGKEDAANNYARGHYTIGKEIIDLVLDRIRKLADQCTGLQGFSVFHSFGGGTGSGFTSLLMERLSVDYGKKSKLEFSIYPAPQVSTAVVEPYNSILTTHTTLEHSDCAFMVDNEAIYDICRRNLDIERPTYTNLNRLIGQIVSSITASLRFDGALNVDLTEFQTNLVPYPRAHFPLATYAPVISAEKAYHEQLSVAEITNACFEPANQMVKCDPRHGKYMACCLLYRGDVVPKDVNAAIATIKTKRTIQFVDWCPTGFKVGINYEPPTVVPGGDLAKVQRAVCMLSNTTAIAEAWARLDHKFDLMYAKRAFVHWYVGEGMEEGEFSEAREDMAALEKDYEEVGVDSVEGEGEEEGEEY

Structure (SMILES): COc1ccc2c(c1O)OC(C)(C)C=C2c1cccc2c1oc1ccccc12 [Compound 8]
- Vmax of microtubule polymerization compared to DMSO control: significantly inhibited tubulin polymerization
